# Laboratory results reported in a melting point compilation (Tetko et al.).
row,melting point,SMILES
1,203 °C,CC12C=CC=CC1NC(=C1C(=O)c3ccccc3C1=O)C=C2 (stereo not drawn)
2,183 to 184 °C,NC(=S)Nc1ccc(I)cc1
3,104 °C,O=C(O)CCN1C(=O)C=CC1=O
4,29.3 °C,CCCCCCCCCCCCCCCCCC(CC)c1ccccc1 (stereo not drawn)
5,157 °C,O=C(O)c1ccccc1O
6,83 to 86 °C,N#CCSc1ccc2ccccc2c1
7,17.1 °C,CCCCCCCCCC=CC(=O)O
8,122 °C,COc1ccc2[nH]cnc2c1
9,77 °C,OCc1ccncn1
10,70 to 72 °C,O=CC(F)(F)C(F)(F)C(F)(F)C(F)(F)C(F)(F)C(F)(F)C(F)(F)C(F)(F)C(F)(F)C(F)(F)F
11,222 to 227 °C,Nc1ccc2cc(C(=O)O)ccc2c1
12,192 °C,O=C(O)/C(=C\c1ccccc1)c1ccccc1[N+](=O)[O-]
13,79.5 to 81 °C,Cn1ccc(-c2ccc(Br)cc2)n1
14,124 °C,CC(C)(C)c1nn(-c2ccccc2)c(N)c1Cn1nnc2ccccc21
15,150 °C,CC(C)(C)c1ccc(C2CCC3(CC2)Cc2ccc(C(=O)Nc4ccccc4OCCCC(=O)O)cc2C3)cc1 (stereo not drawn)
16,224 to 226 °C,NC(Cc1ccc(F)cc1F)C(=O)O (racemic)
17,124 °C,COC(=O)C1(S(=O)(=O)c2ccc(Br)cc2)CC1
18,305 to 310 °C,Nc1nc(O)nc2c1cnn2CCO
19,86 °C,c1ncncn1
20,69 °C,CCCn1cnc2c1c(=O)n(CCCCC(C)=O)c(=O)n2C
21,65 to 68 °C,CSc1ccc([N+](=O)[O-])cc1
22,268 to 270 °C,CC1=CC2(C)C3C(=O)OC(=O)C3C1C1C(=O)OC(=O)C12 (stereo not drawn)
23,63 °C,CSc1ccc2ccccc2c1

row,melting point,SMILES
1,182 to 185 °C,NC(CS(=O)(=O)Cc1ccc(F)cc1)=NO
2,64 °C,S=C=Nc1ccc(OCc2ccccc2)cc1
3,192 °C,O=c1[nH]c(=O)n(C2CC(O)C(CO)O2)cc1Br (stereo not drawn)
4,79 to 81 °C,O=C(O)Cc1ccc(Oc2ccccc2)cc1
5,136 to 144 °C,CCOC(=O)Cc1csc(=S)[nH]1
6,137 °C,CCCC(c1ccc(O)cc1)c1ccc(O)cc1
7,44 °C,Cc1oc(-c2ccccc2)cc1-c1ccccc1
8,40.5 °C,O=C1CCCCCCC1
9,151 °C,CCOC(=O)c1nn(-c2ccc(F)cc2)c(-c2cccs2)c1S(=O)(=O)c1ccccc1
10,196 °C,CC12CCC(/C(=C3/OC(C4C(=O)C5(C)CCC4C5(C)C)C3=O)C1=O)C2(C)C (stereo not drawn)
11,290 °C,Cc1cc(C2(c3ccc(O)c(C)c3)OS(=O)(=O)c3ccccc32)ccc1O
12,116 to 117 °C,CCOC(=O)C(C#N)=Cc1ccc(-c2ccccc2)o1
13,98.6 °C,NC(=S)c1ccc2occc2c1
14,128 °C,CCS(=O)(=O)CCn1c([N+](=O)[O-])cnc1C
15,56.6 °C,CCCCCCCCCCCC(=O)OCCOC(=O)CCCCCCCCCCC
16,208 °C,CN1CCc2cc3c(cc2C(=O)Cc2ccc4c(c2C1)OCO4)OCO3
17,157 to 158 °C,C/C(CCc1oc2c(Br)cc(Br)cc2c1-c1ccc(C)o1)=N/O
18,102 °C,COc1ccc(Nc2ccc(OC)cc2)cc1
19,164 °C,Cc1c(Cl)cccc1C(=O)O
20,-13 to -12 °C,FC(F)(F)c1cc(Cl)cc(Cl)c1
21,117 to 120 °C,O=C(O)CCSC=Cc1ccccc1
22,66 °C,Cc1ccnc(Cl)c1N
23,135 to 137 °C,O=C1C=CC(=O)N1c1ccc(Br)cc1

row,melting point,SMILES
1,232 °C,NS(=O)(=O)c1cc2c(cc1Cl)N=C(CSCc1ccccc1)NS2(=O)=O
2,187 °C,O=C1CCCC1C1(O)C(=O)Nc2ccccc21 (stereo not drawn)
3,91 °C,CCOC(=O)CCC(=O)CC1(O)C2(Cl)C3(Cl)C4(Cl)C(Cl)(Cl)C5(Cl)C3(Cl)C1(Cl)C5(Cl)C42Cl (stereo not drawn)
4,114 °C,O=C1C(=Cc2ccccc2)SC(=S)N1CN1CCCCC1
5,94 to 96 °C,Cn1nnc2cc(CO)ccc21
6,-8.5 °C,CCSCC(=O)O
7,250 °C,O=c1cc(-c2ccc(O)c(O)c2)oc2ccccc12
8,188 °C,CC1=CCCC(C)(C)C1/C=C/C(C)=C/C=C/C(C)=C/C=C/C=C(C)/C=C/C=C(C)/C=C/C1=C(C)CCCC1(C)C (stereo not drawn)
9,39 °C,Cc1cc(Cl)c(O)c(Cl)c1
10,114 to 115 °C,COC(=O)C1(C(=O)OC)C=C(OC)c2ccccc21
11,-37 °C,COC(=O)CCCC(=O)OC
12,75 to 80 °C,Brc1ccc(Cn2ccnc2)cc1
13,126 to 127 °C,COC(=O)c1cnc(SCC(=O)c2ccc(Cl)cc2)n1C
14,184 °C,COc1ccc(/C=C2\CCCC3=C2NC(=S)NC3c2ccc(OC)cc2)cc1 (stereo not drawn)
15,112 °C,O=C(O)Cc1ccccc1Oc1ccc(Cl)cc1Cl
16,41.6 °C,CCCCCCCCCCCCCCCCCCC1CCCCC1
17,54 to 57 °C,OC(c1ccccc1)c1c(F)c(F)c(F)c(F)c1F (stereo not drawn)
18,-36.9 °C,CC1CCC(C)CC1 (stereo not drawn)
19,184 °C,Nc1nn2c(C(F)(F)F)cc(-c3cccs3)nc2c1/N=N/c1ccc(C(=O)O)cc1
20,150 °C,C#CC1(O)CCC2C3CCc4cc(OC)ccc4C3CCC21C (stereo not drawn)
21,110 to 111 °C,COC(=O)c1cc(C)nc(Cl)n1
22,76 °C,COc1cc(F)ccc1C#N
23,52 °C,CCC1(O)c2ccccc2C1C (stereo not drawn)

row,melting point,SMILES
1,100 °C,N#Cc1ccc(-c2cccs2)s1
2,153 °C,Nc1c(CN2CCCCCC2)c(=O)oc2ccccc12
3,236 to 238 °C,N#Cc1sc2nc(-c3ccccc3)cc(C(F)(F)F)c2c1N
4,100 °C,CCOc1ccc(Cc2nccc3cc(OCC)c(OCC)cc23)cc1OCC
5,126 °C,N=C(N)S(=O)O
6,123 to 124 °C,O=C(O)Cc1ccc(OCc2ccccc2)cc1
7,84 to 85 °C,O=S(=O)(Cl)c1ccc2c(c1)CCO2
8,252 °C,CC(=O)Nc1ccccc1/C=C/c1cc(C)c([N+](=O)[O-])cc1[N+](=O)[O-]
9,174 to 175 °C,Cc1cc(C(=O)O)ccc1O
10,152 °C,O=C(C1=NOC2C(=O)N(c3ccc(Cl)cc3)C(=O)C12)c1ccc(Cl)cc1 (stereo not drawn)
11,124 to 128 °C,CC(=O)Oc1cn(C(C)=O)c2ccc(Br)cc12
12,146 °C,Cc1cccc(C)c1NC(=O)c1cnc(C(C)(C)C)c(Cl)n1
13,152 °C,O=C1CCCCCCCCCCCN1
14,51 °C,Cc1cc(C(C)(C)C)cc(C(C)(C)C)c1O
15,249 to 250 °C,CC(=O)Nc1ccc(C=Cc2nc3cc([N+](=O)[O-])ccc3n2-c2ccc(C)cc2)cc1
16,135 °C,CC(=O)Nc1ccccc1N
17,123 to 128 °C,Clc1nc(-c2ccccc2)nc2ccccc12
18,210 to 211 °C,Cc1ccccc1/C=C(\C#N)c1nc2ccccc2[nH]1
19,71 °C,COC(=O)CCc1cc(CCC(=O)OC)c([N+](=O)[O-])cc1[N+](=O)[O-]
20,87 to 90 °C,N#Cc1ccc(OCCN2CCOCC2)cc1
21,53 to 56 °C,O=Cc1ccc(CN2CCOCC2)cc1
22,105 to 106 °C,Brc1ccc(N2CCCC2)cc1
23,46 to 50 °C,ClCC1CN(Cc2ccccc2)CCO1 (stereo not drawn)

row,melting point,SMILES
1,131 °C,O=C1NCCN1
2,223 to 228 °C,NC(=S)c1ccc(-c2csnn2)cc1
3,70 to 72 °C,COC(=O)c1ccc(N2CCCCC2)nc1
4,159 to 161 °C,O=C(O)c1ccc(Cl)cc1Br
5,67 °C,Cc1ccc2cccc(Cl)c2n1
6,98 to 100 °C,CCOc1cc(NC(=O)c2ccccc2)c(OCC)cc1N
7,101 to 102 °C,NNc1ccc(I)cc1
8,121 to 122 °C,CCSc1ncccc1C(=O)NC(CCSC)C(=O)O (stereo not drawn)
9,-36 °C,C1CCC(OC2CCCCC2)CC1
10,8 °C,Fc1cccc(-c2cccc(F)c2)c1
11,103 to 104 °C,ON=C1CCCSC1
12,0 °C,BrC(Br)C(Br)Br
13,211 to 212 °C,CSc1nc2cc([N+](=O)[O-])ccc2[nH]1
14,151 to 153 °C,CSC(S)=Nc1ccccc1C
15,129 °C,CCCCCc1ccc(NC(=O)c2ccc(C)cc2)cc1
16,189 °C,Cc1cc(-c2ccccc2)n(N)c(=O)c1C#N
17,22 °C,CCCCCCCCCCCCCCCCI
18,62.2 °C,C=CC(CO)N1C(=O)c2ccccc2C1=O (stereo not drawn)
19,34 °C,C=CN1CCCCCC1=O

row,SMILES,melting point
1,O=C(O)c1cc([N+](=O)[O-])c(O)c([N+](=O)[O-])c1,250 °C
2,CNC(=O)Oc1cc(C)c(C)c(C)c1,110 °C
3,OCC(F)(F)C(F)(F)CO,85 to 87 °C
4,Cc1ccccc1P(c1ccccc1)c1ccccc1,72 °C
5,CC1NC2CCCCCCCC(=O)OC3CCC(CCCCCCCC(=O)OC1CC2)NC3C (stereo not drawn),121 °C
6,c1ccc2c(c1)ccc1ncccc12,94 °C
7,CCNc1nc(NC(C)C(C)C)nc(SC)n1 (stereo not drawn),65 °C
8,CNCCCCCCN(C)N(O)N=O,102 to 108 °C
9,ClC1=C(Cl)C(Cl)(Cl)C(Cl)=C1Cl,-9 °C
10,CC(C)C1(C)N=C(c2nc3ccccc3cc2C(=O)O)NC1=O (stereo not drawn),224 °C
11,O=[N+]([O-])c1ccc(C(Cl)=Cc2ccc(C=C(Cl)c3ccc([N+](=O)[O-])cc3[N+](=O)[O-])cc2)c([N+](=O)[O-])c1,245 °C
12,C=CCc1ccc2c(c1)OCO2,11.2 °C
13,S=C=Nc1ccc(I)cc1,76 to 78 °C
14,COc1ccc2c(c1O)-c1cccc3c1C(C2)N(C)CC3 (stereo not drawn),124 °C
15,ClC=CCl,-80 °C
16,Cc1cc(C(F)(C(F)(F)F)C(F)(F)F)ccc1NC(=O)c1cccc(I)c1C(=O)NC(C)(C)CS(C)(=O)=O,218 °C
17,NC(=O)C(F)(Br)C(F)(F)F (stereo not drawn),83 to 84 °C
